Assay: HPLC assay on storage of sildenafil citrate with equal concentration of sucralose in pH adjusted 50% ethanol (Example 2)
Format: physicochemical
Protocol: At room temperature, a phosphate buffer was prepared by weighing 3.9 g of NaH2PO4.2H2O into a 500 mL volumetric flask and adding approximately 300 mL of purified water until the phosphate fully dissolved. The pH was then adjusted to 7 with the introduction of NaOH and dilute to the requisite volume by the further addition of purified water.
A 50% ethanol mixture was prepared by introducing either purified water, taken from a MilliQ™ unit or phosphate buffer, to equivalent volumes of Ph.Eur. grade absolute alcohol. The pH of the resultant mixture was then adjusted by using either NaOH 1N solutions and/or Sodium Citrate 1N solutions to reach predetermined pH values.
Samples of sucralose were then dissolved in the pH adjusted 50% ethanol, whilst stirred with a magnetic stirrer and a needle, to a predetermined concentration. […] After preparation, the solutions were each filtered through PDVF 0.22 micro filter of 13 mm in size and placed in polypropylene containers of adequate volume.
Before being placed on storage, and at time points 7 and 42 days, the concentration of sildenafil in the mixture was assayed using HPLC. The samples were then stored at either −20° C., 2-8° C. or 25° C. for periods of up to 42 days. Periodically, the samples were visually inspected for evidence of precipitation or crystallization. […]
The samples of 21 mg/ml at a pH of 5.6 were maintained in stability testing at 25° C. for a total of 285 days.

CCCc1nn(C)c2c(=O)nc(-c3cc(S(=O)(=O)N4CCN(C)CC4)ccc3OCC)[nH]c12.O=C(O)CC(O)(CC(=O)O)C(=O)O [sildenafil citrate, 1-[[3-(4,7-Dihydro-1-methyl-7-oxo-3-propyl-1H-pyrazolo[4,3-d]pyrimidin-5-yl)-4-ethoxyphenyl]sulfonyl]-4-methylpiperazine citrate salt]
concentration of sildenafil by HPLC (15 mg/ml, pH 5.0, Sodium Citrate, 2-8 ° C., Day 7): 11050 µg/mL | concentration of sildenafil by HPLC (15 mg/ml, pH 5.0, Sodium Citrate, 25 ° C., Day 7): 14890 µg/mL | concentration of sildenafil by HPLC (15 mg/ml, pH 5.0, Sodium Citrate, Day 0): 15220 µg/mL | concentration of sildenafil by HPLC (15 mg/ml, pH 5.2, NaOH, 2-8 ° C., Day 7): 14990 µg/mL | concentration of sildenafil by HPLC (15 mg/ml, pH 5.2, NaOH, 25 ° C., Day 7): 15010 µg/mL | concentration of sildenafil by HPLC (15 mg/ml, pH 5.2, NaOH, Day 0): 15050 µg/mL | concentration of sildenafil by HPLC (15 mg/ml, pH 5.24, NaOH, 50% ethanol/phosphate buffer, 2-8 ° C., Day 7): 14970 µg/mL | concentration of sildenafil by HPLC (15 mg/ml, pH 5.24, NaOH, 50% ethanol/phosphate buffer, 25 ° C., Day 7): 15010 µg/mL | concentration of sildenafil by HPLC (15 mg/ml, pH 5.24, NaOH, 50% ethanol/phosphate buffer, Day 0): 15060 µg/mL | concentration of sildenafil by HPLC (15 mg/ml, pH 5.6, NaOH, 2-8 ° C., Day 7): 15030 µg/mL | concentration of sildenafil by HPLC (15 mg/ml, pH 5.6, NaOH, 2-8 ° C., Day 42): 15050 µg/mL | concentration of sildenafil by HPLC (15 mg/ml, pH 5.6, NaOH, 25 ° C., Day 7): 14930 µg/mL | concentration of sildenafil by HPLC (15 mg/ml, pH 5.6, NaOH, 25 ° C., Day 42): 14970 µg/mL | concentration of sildenafil by HPLC (15 mg/ml, pH 5.6, NaOH, 50% ethanol/phosphate buffer, 2-8 ° C., Day 7): 14920 µg/mL | concentration of sildenafil by HPLC (15 mg/ml, pH 5.6, NaOH, 50% ethanol/phosphate buffer, 25 ° C., Day 7): 14940 µg/mL | concentration of sildenafil by HPLC (15 mg/ml, pH 5.6, NaOH, 50% ethanol/phosphate buffer, Day 0): 14960 µg/mL | concentration of sildenafil by HPLC (15 mg/ml, pH 5.6, NaOH, Day 0): 15140 µg/mL | concentration of sildenafil by HPLC (15 mg/ml, pH 5.6, Sodium Citrate, 2-8 ° C., Day 7): 14800 µg/mL | concentration of sildenafil by HPLC (15 mg/ml, pH 5.6, Sodium Citrate, 2-8 ° C., Day 42): 15040 µg/mL | concentration of sildenafil by HPLC (15 mg/ml, pH 5.6, Sodium Citrate, 25 ° C., Day 7): 14790 µg/mL | concentration of sildenafil by HPLC (15 mg/ml, pH 5.6, Sodium Citrate, 25 ° C., Day 42): 14880 µg/mL | concentration of sildenafil by HPLC (15 mg/ml, pH 5.6, Sodium Citrate, Day 0): 14920 µg/mL | concentration of sildenafil by HPLC (15 mg/ml, pH 6.01, NaOH, 50% ethanol/phosphate buffer, 2-8 ° C., Day 7): 14690 µg/mL | concentration of sildenafil by HPLC (15 mg/ml, pH 6.01, NaOH, 50% ethanol/phosphate buffer, 25 ° C., Day 7): 14830 µg/mL | concentration of sildenafil by HPLC (15 mg/ml, pH 6.01, NaOH, 50% ethanol/phosphate buffer, Day 0): 14830 µg/mL | concentration of sildenafil by HPLC (15 mg/ml, pH 6.2, NaOH, 2-8 ° C., Day 7): 10420 µg/mL | concentration of sildenafil by HPLC (15 mg/ml, pH 6.2, NaOH, 25 ° C., Day 7): 11750 µg/mL | concentration of sildenafil by HPLC (15 mg/ml, pH 6.2, NaOH, Day 0): 15140 µg/mL | concentration of sildenafil by HPLC (15 mg/ml, pH 6.2, Sodium Citrate, 2-8 ° C., Day 7): 11110 µg/mL | concentration of sildenafil by HPLC (15 mg/ml, pH 6.2, Sodium Citrate, 25 ° C., Day 7): 12100 µg/mL | concentration of sildenafil by HPLC (15 mg/ml, pH 6.2, Sodium Citrate, Day 0): 14750 µg/mL | concentration of sildenafil by HPLC (18 mg/ml, pH 5.2, NaOH, 2-8 ° C., Day 7): 17890 µg/mL | concentration of sildenafil by HPLC (18 mg/ml, pH 5.2, NaOH, 25 ° C., Day 7): 17930 µg/mL | concentration of sildenafil by HPLC (18 mg/ml, pH 5.2, NaOH, Day 0): 18230 µg/mL | concentration of sildenafil by HPLC (18 mg/ml, pH 5.2, Sodium Citrate, Day 0): 18090 µg/mL | concentration of sildenafil by HPLC (18 mg/ml, pH 5.3, NaOH, 50% ethanol/phosphate buffer, 2-8 ° C., Day 7): 18050 µg/mL | concentration of sildenafil by HPLC (18 mg/ml, pH 5.3, NaOH, 50% ethanol/phosphate buffer, 25 ° C., Day 7): 18070 µg/mL | concentration of sildenafil by HPLC (18 mg/ml, pH 5.3, NaOH, 50% ethanol/phosphate buffer, Day 0): 18070 µg/mL | concentration of sildenafil by HPLC (18 mg/ml, pH 5.6, NaOH, 2-8 ° C., Day 7): 17860 µg/mL | concentration of sildenafil by HPLC (18 mg/ml, pH 5.6, NaOH, 2-8 ° C., Day 42): 18070 µg/mL | concentration of sildenafil by HPLC (18 mg/ml, pH 5.6, NaOH, 25 ° C., Day 7): 17860 µg/mL | concentration of sildenafil by HPLC (18 mg/ml, pH 5.6, NaOH, 25 ° C., Day 42): 18070 µg/mL | concentration of sildenafil by HPLC (18 mg/ml, pH 5.6, NaOH, Day 0): 18130 µg/mL | concentration of sildenafil by HPLC (18 mg/ml, pH 5.6, Sodium Citrate, 2-8 ° C., Day 7): 17820 µg/mL | concentration of sildenafil by HPLC (18 mg/ml, pH 5.6, Sodium Citrate, 2-8 ° C., Day 42): 17880 µg/mL | concentration of sildenafil by HPLC (18 mg/ml, pH 5.6, Sodium Citrate, 25 ° C., Day 7): 17820 µg/mL | concentration of sildenafil by HPLC (18 mg/ml, pH 5.6, Sodium Citrate, 25 ° C., Day 42): 17910 µg/mL | concentration of sildenafil by HPLC (18 mg/ml, pH 5.6, Sodium Citrate, Day 0): 18190 µg/mL | concentration of sildenafil by HPLC (18 mg/ml, pH 5.63, NaOH, 50% ethanol/phosphate buffer, 2-8 ° C., Day 7): 18010 µg/mL | concentration of sildenafil by HPLC (18 mg/ml, pH 5.63, NaOH, 50% ethanol/phosphate buffer, 25 ° C., Day 7): 18040 µg/mL | concentration of sildenafil by HPLC (18 mg/ml, pH 5.63, NaOH, 50% ethanol/phosphate buffer, Day 0): 18180 µg/mL | concentration of sildenafil by HPLC (18 mg/ml, pH 6.0, Sodium Citrate, 2-8 ° C., Day 7): 14950 µg/mL | concentration of sildenafil by HPLC (18 mg/ml, pH 6.0, Sodium Citrate, 25 ° C., Day 7): 15080 µg/mL | concentration of sildenafil by HPLC (18 mg/ml, pH 6.0, Sodium Citrate, Day 0): 17760 µg/mL

— patent publication US20220193081A1 (Ellamed IP & Services PTE. LTD., priority 2019, published 2022)
